In patent US5230998A, “Method for the prescreening of drugs targeted to the V3 hypervariable loop of the HIV-1 envelope glycoprotein gp 120” (priority 1991, dated 1993):
Entries after “also recorded” stand apart in the source; their conditions may differ.

How the values were obtained:
CD4 receptor = settings: literature; listed as ATA; cited from earlier work
BH 10 peptide = molecular target: T1, BH 10 peptide (Human immunodeficiency virus type 1 BH10, UniProt P03375); experiment: Attachment of ATA to V3 hypervariable loop peptides of distinct HIV-1 isolates (FIG. 4B); format: binding, HIV-1 BH 10
T1 construct: cut from Env gp160
Description: FIG. 4 comprises bar graphs depicting the interaction of aurintricarboxylic acid (ATA) with full length V3 hypervariable loop peptides from gp120 of distinct HIV-1 isolates (clones). FIG. 4A: Inhibitory effects of ATA (50 μg/ml) on the reaction between peptide-coated wells and homologous anti-peptide antisera (diluted 1:1,000). FIG. 4B: attachment of ATA to distinct V3 hypervariable loop peptide-coated wells as determined by double antibody RIA using rabbit antiserum against ATA.
ATA was also added to a control peptide, (518-542), and to wells coated with gelatin only. After incubation for 4 hours at 20° C., excess ATA was removed, the wells were washed with TS and attached ATA was determined by double-antibody RIA using serial dilutions of the anti-ATA antiserum. Similar tests were carried out with serum from the same rabbit before immunization with the ATA-BSA conjugate; the corresponding results (100-450 cpm) were subtracted from cpm corresponding to RIA results obtained with the anti-ATA antiserum. For additional assays aimed at determining the binding of ATA to synthetic peptides from gp120 and gp41 of HIV-1 BH 10 and to V3 hypervariable loop peptides from 20 additional HIV-1 isolates, anti-ATA antiserum was used at a final dilution of 1:800.

[1] = molecular target: T2, V3 hypervariable loop peptide (303-338) (Human immunodeficiency virus type 1 BH10, UniProt P03375); experiment: Inhibition by ATA of reaction between peptide and homologous antibodies (FIG. 1B); format: binding, HIV-1 BH 10; settings: ATA 50 μg/ml
T2 construct: cut from Env gp160
Description: (§1) FIG. 1 comprises four bar graphs concerning the interaction of aurintricarboxylic acid (ATA) with the V3 hypervariable loop of gp120 and with distinct peptides derived from the sequence of gp160. FIG. 1A: Inhibitory effect of ATA (50 μg/ml) on the reaction of antibodies to peptides from the sequence of HIV-1 gp160 with gp120 or gp160. gp120-coated wells were used for antisera to peptides from gp120 and gp160-coated wells were used with antisera to peptides from gp41. FIG. 1B: Inhibitory effect of ATA (50 μg/ml) on the reaction between antibodies to peptides from gp120/gp41 and homologous peptides. FIG. 1C: binding of ATA to wells coated with distinct peptides from the sequence of gp160, as determined by subsequent binding of anti-ATA antibodies. FIG. ID: Net electric charge of peptides from the sequence of gp160, determined by subtracting the number of aspartic (D) and glutamic (E) residues from the sum of lysine (K) and arginine (R) residues present in distinct segments of the gp160 sequence. The horizontal dotted line indicates the boundary between non-significant and significant inhibition, established from three times repeated experiments.
(§2) Wells of 96 well polystyrene plates (Immulon 2, Dynatech Laboratories, Inc., Chantilly, Va.) were coated with synthetic peptides (200 μl; 20μg/ml in 0.1 M Tris-HCl, pH 8.8) overnight at 20° C. The peptides were from the sequence of HIV-1, clone BH 10 envelope glycoproteins gp120 and gp41 (Neurath, A. R., Strick, N., and Lee, E. Y. S. (1990), "B-cell Epitope Mapping of Human Immunodeficiency virus (HIV-1) Envelope Glycoprotein with Long (19 to 36-residue) Synthetic Peptides", J. Gen. Virol., 71., 85-95) and from V3 hypervariable loops of 21 distinct HIV-1 isolates (clones) Neurath, A. R., and Strick, N., (1990), "Confronting the Hypervariability of an Immunodominant Epitope Eliciting Virus Neutralizing Antibodies from the Envelope Glycoprotein of the Human Immunodeficiency Virus Type 1 (HIV-1)", Molec. Immunol., 27, 539-549. The latter peptides corresponded to full-length V3 loops generated by disulfide bonds between N- and C- terminal cysteine residues. After washing with 0.14 M NaCl, 0.01 M Tris, 0.02% NaN3 (TS), the wells were postcoated with a mixture of bovine serum albumin (BSA) and gelatine (10 and 2.5 mg/ml, respectively) in TS. […]
(§3) To define sites on gp120/gp41 reacting with ATA, the inhibitory effect of this compound was studied by RIA tests using gp120- and gp160-coated wells, respectively, and antisera (final dilutions 1:150) against synthetic peptides from the entire sequence of gp120/gp41 of HIV-1 BH 10. […] Attached rabbit IgG was detected using ^125 I-labeled anti-rabbit IgG, as described before (Neurath et al., 1990, J. Gen. Virol., 71, 85-95). […]

peptide (331-361) = peptide (331-361) (Human immunodeficiency virus type 1 BH10, UniProt P03375); experiment: as above; format: binding, HIV-1 BH 10; settings: ATA 50 μg/ml
Description: as §1, §2, §3

peptide (492-518) = peptide (492-518) (Human immunodeficiency virus type 1 BH10, UniProt P03375); experiment: as above; format: binding, HIV-1 BH 10; settings: ATA 50 μg/ml
Description: as §1, §2, §3

[2] = molecular target: peptide (845-862) from gp41 (Human immunodeficiency virus type 1 BH10, UniProt P03375); experiment: as above; format: binding, HIV-1 BH 10; settings: ATA 50 μg/ml
Description: as §1, §2, §3

[3] = molecular target: recombinant gp120 and recombinant CD4 (UniProt P01730+P03375); experiment: Inhibition of the reaction between recombinant gp120 and recombinant CD4; format: binding; settings: complete inhibition only at high concentrations; read-out: concentration for complete inhibition of the gp120-CD4 reaction
Description: However, ATA is an inefficient inhibitor of the reaction between recombinant gp120 and recombinant CD4, and complete inhibition of this reaction can be observed only at high concentrations of ATA (≈1 mg/ml).

[4] = system: gp120 expressed on the surface of HIV-1-infected cells; settings: literature; cited from earlier work

SMILES: O=C(O)C1=CC(=C(c2ccc(O)c(C(=O)O)c2)c2ccc(O)c(C(=O)O)c2)C=CC1=O [substance #122, aurintricarboxylic acid]
- inhibition of the interaction with CD4 receptor (CD4 receptor): inhibited the interaction of the CD4 receptor for HIV-1; also recorded: inhibiting the interaction between HIV-1 virions and cellular CD4 receptors
- ATA binding to V3 peptide (BH 10 peptide): bound the highest levels of ATA
- inhibition of reaction of peptide with homologous antibodies [1]: most dramatically inhibited
- inhibition of reaction of peptide with homologous antibodies (peptide (331-361)): Inhibition was also observed
- inhibition of reaction of peptide with homologous antibodies (peptide (492-518)): did not inhibit the reaction between this peptide and homologous anti-peptide antibodies
- inhibition of reaction of peptide with homologous antibodies [2]: Inhibition was also observed
- IC100 [3]: ~1000 µg/mL
- inhibition of the reaction of gp120 on infected cells with monoclonal anti-gp120 antibodies [4]: inhibit the reaction of gp120 expressed on the surface of HIV-1-infected cells with monoclonal anti-gp120 antibodies
